This is an account of results in patent US20250041303A1, “COMBINATION THERAPY FOR CANCER TREATMENT” (INSTITUTE FOR CANCER RESEARCH D/B/A THE RESEARCH INSTITUTE …, priority 2021, published 2025).

In data set [1] the test system is SW1463 or SW837 KRASG12C cells. Description: Colony formation assay (14 days) in KRASG12C CRC cells. Particulars: 1 μM.
The target of the next data set is T1, KRASG12C (Homo sapiens, UniProt P01116, G12C).
T1 construct: endogenous in cells; host or cells: SW1463
Description: Western blot of KRASG12C and effector signaling in SW1463 cells. Format: cell-based. A general note: A western blot detects proteins with antibodies after separation by electrophoresis.

The subject of data set [2] is MEK1/2. Put plainly: Western blot of MEK1/2 degradation and ERK1/2 phosphorylation in LS513 cells. It counts as cell-based. Particulars: LS513 (MDR1-overexpressing) vs SKCO1; escalating doses, 4 hours.
Description: (§2) Samples were harvested in MIB lysis buffer (50 mM HEPES (pH 7.5), 0.5% Triton X-100, 150 mM NaCl, 1 mM EDTA, 1 mM EGTA, 10 mM sodium fluoride, 2.5 mM sodium orthovanadate, 1× protease inhibitor cocktail (Roche), and 1% each of phosphatase inhibitor cocktails 2 and 3 (Sigma)). Particulate was removed by centrifugation of lysates at 21,000 rpm for 15 minutes at 4° C. Lysates were subjected to SDS-PAGE chromatography and transferred to PVDF membranes before western blotting with primary antibodies. […] Secondary HRP-anti-rabbit and HRP-anti-mouse were obtained from ThermoFisher Scientific. SuperSignal West Pico and Femto Chemiluminescent Substrates (Thermo) were used to visualize blots.
The subject of data set [3] is K-ras mutant CRC cell lines (LS1034, LS513, SW948, SW1463, SKCO1, NCIH747, SW620). Put plainly: Cell viability (CellTiter-Glo) and colony formation of K-ras mutant CRC cell lines. Particulars: escalating doses 5 days (viability); 1 μM 14 days (colony formation).
Data set [4] concerns MEK1/2. Description: Western blot of MEK1/2 degrader target in DLD-1 cells. It counts as cell-based. Particulars: 1 μM, 24 hours.
Data set [5] has as its target T2, CDK9 (Homo sapiens, UniProt P50750). Description: Western blot of CDK9 degradation, A1847 parental vs Thal-R cells. Format: cell-based.
Description: as §2
Data set [6] has as its target T2, CDK9. Put plainly: Western blot of CDK9 degradation in DLD-1 cells. Format: cell-based. Also noted: endogenous in cells; host or cells: DLD-1. Particulars: 4 hours.
Description: as §2
Data set [7] concerns A1847 and SUM159 parental and degrader-resistant cells. Put plainly: CellTiter-Glo cell viability, parental vs degrader-resistant cells. For orientation: In ATP-based viability assays light output follows the ATP content of the culture.
Data set [8] relates to HCT-15, DLD-1 and CAKI-1 cells (MDR1 overexpressing). Description: CellTiter-Glo cell viability of MDR1 overexpressing vs low MDR1 cancer cell lines. The conditions noted are these: HCT-15, DLD-1, CAKI-1 vs A1847, SUM159, MOLT4; escalating doses, 5 days.
A further data set has as its system MDR1 (ABCB1). Put plainly: Single-run proteomics (LC-MS/MS, label-free quantitation) of degrader-resistant cells. Format: cell-based, human. Particulars: A1847 cells chronically exposed to the degrader (degrader-R) vs parental. Here is the method:
To determine changes in cells chronically exposed to BET or CDK9 PROTACs, we performed single-run proteome analysis as previously described (Lai et al., Front. Oncol., 2020, 10, 2336). Briefly, WT or PROTAC-R cells were lysed in 50 mM HEPES pH 8.0+4% SDS, and 100 μg of proteins were digested using LysC and trypsin. Digested peptides were isolated using C-18 and PGC columns, then dried and cleaned with ethyl acetate. Three […] peptides were analyzed using LC-MS/MS. MaxQuant normalized LFQ values were imported into Perseus software (1.6.2.3) and filtered in the following manner: kinases identified by site only were removed, reverse, or potential contaminant were removed then filtered for kinases identified by >1 unique peptide. Protein LFQ values were log 2 transformed, filtered for a minimum valid number of 3, normalized using Z-scores, annotated, and subjected to a Student's t-test with comparing […]. […]
Proteolytic peptides were resuspended in 0.1% formic acid and separated with a Thermo Scientific RSLC nano Ultimate 3000 LC on a Thermo Scientific Easy-Spray C18 PepMap 75 μm×50 cm C-18 2 μm column. […] Eluted peptides were analyzed by Thermo Scientific Q Exactive or Q Exactive plus mass spectrometers utilizing a top 15 methodology in which the 15 most intense peptide precursor ions were subjected to fragmentation. […]
Raw data analysis of LFQ experiments was performed using MaxQuant software 1.6.1.0 and searched using Andromeda 1.5.6.0 against the Swiss-Prot human protein database (downloaded on Apr. 24, 2019, 20402 entries). […] LFQ quantitation was performed using MaxQuant with the following parameters; LFQ minimum ratio count: Global parameters for protein quantitation were as follows: label minimum ratio count: 1, peptides used for quantitation: unique, only use modified proteins selected and with normalized average ratio estimation selected. Match between runs was employed for LFQ quantitation and the significance threshold of the ion score was calculated based on a false discovery rate of <1%.

The test system of data set [9] is A1847 Parental or dBET6-R cells. Description: Western blot for cross-resistance to other PROTACs. Particulars: A1847 dBET6-R vs parental; 1 μM, 24 hours. Format: cell-based.
The target in data set [10] is T3, MDR1 (Homo sapiens, UniProt P08183). Description: Rhodamine 123 efflux assay in LS513 cells. The conditions noted are these: 2 μM. On the set-up: endogenous in cells. Format: cell-based. On the procedure: Efflux assay was performed according to manufacturer's protocol (Millipore Sigma #ECM910). […] Cells were centrifuged and treated in warm efflux buffer with DMSO or drug for 30-60 minutes, washed with cold PBS, and effluxed dye was quantified with a plate reader at an excitation wavelength of 485 nm and an emission wavelength of 530 nm.

The target of data set [11] is T3, MDR1. Description: Rhodamine 123 efflux assay in DLD-1 cells. It counts as cell-based. Also noted: endogenous in cells. Particulars: 2 μM. On the procedure:
(§1) Efflux assay was performed according to manufacturer's protocol (Millipore Sigma #ECM910). Cells were resuspended in cold efflux buffer and incubated with Rhodamine 123 for 1 hour on ice. Cells were centrifuged and treated in warm efflux buffer with DMSO or drug for 30-60 minutes, washed with cold PBS, and effluxed dye was quantified with a plate reader at an excitation wavelength of 485 nm and an emission wavelength of 530 nm.

Data set [12] relates to ERBB3 and downstream AKT signaling. Description: Western blot of MEKi-induced ERBB3/AKT signaling in LS513 cells. It counts as cell-based. Particulars: LS513, 48 hours. On the set-up: dose or concentration left out as unconfirmed.
Description: as §2
A further data set deals with T4, BRD4 (BET proteins) (Homo sapiens, UniProt O60885).
T4 construct: endogenous in cells; host or cells: DLD-1
Description: Western blot of BET protein/BRD4 degradation in DLD-1 cells. The conditions noted are these: 4 hours. Format: cell-based.

The test system of data set [13] is A1847 dBET6-R or Thal-R cells. Description: Apoptosis by western blot in degrader-resistant A1847 cells. It counts as cell-based. The conditions noted are these: 2 μM, 4 hours.
Description: as §2
For data set [14], the target named is T3, MDR1. Put plainly: Rhodamine 123 efflux assay in degrader-resistant cells. Format: cell-based. Also noted: endogenous in cells; host or cells: A1847 parental, dBET6-R, Thal-R; SUM159 parental, MZ1-R. Particulars: A1847 dBET6-R or Thal-R cell lines; 2 μM. On the procedure:
as §1

The next data set has as its system DLD-1 cells. Put plainly: Colony formation assay (14 days) in DLD-1 cells.
In data set [15] the test system is BET proteins (BRD2, BRD3 or BRD4). Put plainly: Western blot of BET protein degradation, parental vs degrader-resistant cells. It counts as cell-based. The conditions noted are these: A1847 dBET6-R or MZ1-R vs parental; 2 μM, 4 hours.
Description: as §2
In the next data set the test system is LS513 xenografts. Description: Tumor xenograft experiment. It counts as in vivo, nude mice. Particulars: MS934 50 mg/kg intraperitoneal daily, lapatinib 100 mg/kg oral gavage daily, or the combination; two weeks. On the procedure:
Animal studies were conducted in accordance with the guidelines set forth by the Institutional Animal Care and Use Committee. 1×10^6 LS513 cells were prepared in growth factor reduced Matrigel (Corning) 1:1 and injected into the right flank of 6- to 8-weeks old nude mice. […] For in vivo studies, MS934 was resuspended in 5% N-methyl-2-pyrrolidinone (NMP), 5% Kolliphor HS-15 (sigma) and 90% saline; and delivered by intraperitoneal injection (daily). […] Tumor volumes were evaluated every two days using a caliper and the volume was calculated applying the following formula: [(width)^2×(length)]/2.

Setting [16] is: SW1463, lapatinib 5 μM or tariquidar 0.01 μM, 48 hours.

T2 sequence (P50750 whole entry): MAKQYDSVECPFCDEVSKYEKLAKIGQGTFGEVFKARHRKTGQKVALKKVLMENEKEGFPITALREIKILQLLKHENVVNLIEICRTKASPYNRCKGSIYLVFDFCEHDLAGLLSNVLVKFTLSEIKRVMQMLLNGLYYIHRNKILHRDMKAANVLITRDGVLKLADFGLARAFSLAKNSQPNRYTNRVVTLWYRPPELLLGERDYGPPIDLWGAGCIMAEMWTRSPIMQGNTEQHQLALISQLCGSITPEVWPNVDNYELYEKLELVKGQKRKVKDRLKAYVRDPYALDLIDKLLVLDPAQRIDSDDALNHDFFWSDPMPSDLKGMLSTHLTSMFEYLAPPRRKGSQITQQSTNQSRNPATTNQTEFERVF
T2 sequence (O60563 whole entry partner): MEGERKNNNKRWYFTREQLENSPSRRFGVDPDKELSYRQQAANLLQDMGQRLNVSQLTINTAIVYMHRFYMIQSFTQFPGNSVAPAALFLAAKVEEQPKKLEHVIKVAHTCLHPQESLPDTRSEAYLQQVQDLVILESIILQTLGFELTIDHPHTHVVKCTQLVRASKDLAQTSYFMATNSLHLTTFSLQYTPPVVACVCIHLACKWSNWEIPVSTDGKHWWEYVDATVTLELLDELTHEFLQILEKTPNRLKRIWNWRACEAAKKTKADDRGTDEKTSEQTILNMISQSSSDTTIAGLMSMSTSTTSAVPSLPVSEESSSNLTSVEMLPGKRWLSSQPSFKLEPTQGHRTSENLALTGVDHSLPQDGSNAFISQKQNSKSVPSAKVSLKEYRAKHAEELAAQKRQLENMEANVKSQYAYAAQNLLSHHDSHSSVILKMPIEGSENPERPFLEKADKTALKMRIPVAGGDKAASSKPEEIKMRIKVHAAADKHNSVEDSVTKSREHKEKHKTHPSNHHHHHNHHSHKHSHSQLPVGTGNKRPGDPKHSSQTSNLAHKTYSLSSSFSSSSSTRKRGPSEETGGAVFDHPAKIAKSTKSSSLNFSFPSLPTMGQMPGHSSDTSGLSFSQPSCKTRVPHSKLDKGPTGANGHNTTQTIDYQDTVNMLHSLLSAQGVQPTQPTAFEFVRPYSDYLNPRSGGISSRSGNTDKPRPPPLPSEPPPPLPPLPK
T3 sequence (P08183 whole entry): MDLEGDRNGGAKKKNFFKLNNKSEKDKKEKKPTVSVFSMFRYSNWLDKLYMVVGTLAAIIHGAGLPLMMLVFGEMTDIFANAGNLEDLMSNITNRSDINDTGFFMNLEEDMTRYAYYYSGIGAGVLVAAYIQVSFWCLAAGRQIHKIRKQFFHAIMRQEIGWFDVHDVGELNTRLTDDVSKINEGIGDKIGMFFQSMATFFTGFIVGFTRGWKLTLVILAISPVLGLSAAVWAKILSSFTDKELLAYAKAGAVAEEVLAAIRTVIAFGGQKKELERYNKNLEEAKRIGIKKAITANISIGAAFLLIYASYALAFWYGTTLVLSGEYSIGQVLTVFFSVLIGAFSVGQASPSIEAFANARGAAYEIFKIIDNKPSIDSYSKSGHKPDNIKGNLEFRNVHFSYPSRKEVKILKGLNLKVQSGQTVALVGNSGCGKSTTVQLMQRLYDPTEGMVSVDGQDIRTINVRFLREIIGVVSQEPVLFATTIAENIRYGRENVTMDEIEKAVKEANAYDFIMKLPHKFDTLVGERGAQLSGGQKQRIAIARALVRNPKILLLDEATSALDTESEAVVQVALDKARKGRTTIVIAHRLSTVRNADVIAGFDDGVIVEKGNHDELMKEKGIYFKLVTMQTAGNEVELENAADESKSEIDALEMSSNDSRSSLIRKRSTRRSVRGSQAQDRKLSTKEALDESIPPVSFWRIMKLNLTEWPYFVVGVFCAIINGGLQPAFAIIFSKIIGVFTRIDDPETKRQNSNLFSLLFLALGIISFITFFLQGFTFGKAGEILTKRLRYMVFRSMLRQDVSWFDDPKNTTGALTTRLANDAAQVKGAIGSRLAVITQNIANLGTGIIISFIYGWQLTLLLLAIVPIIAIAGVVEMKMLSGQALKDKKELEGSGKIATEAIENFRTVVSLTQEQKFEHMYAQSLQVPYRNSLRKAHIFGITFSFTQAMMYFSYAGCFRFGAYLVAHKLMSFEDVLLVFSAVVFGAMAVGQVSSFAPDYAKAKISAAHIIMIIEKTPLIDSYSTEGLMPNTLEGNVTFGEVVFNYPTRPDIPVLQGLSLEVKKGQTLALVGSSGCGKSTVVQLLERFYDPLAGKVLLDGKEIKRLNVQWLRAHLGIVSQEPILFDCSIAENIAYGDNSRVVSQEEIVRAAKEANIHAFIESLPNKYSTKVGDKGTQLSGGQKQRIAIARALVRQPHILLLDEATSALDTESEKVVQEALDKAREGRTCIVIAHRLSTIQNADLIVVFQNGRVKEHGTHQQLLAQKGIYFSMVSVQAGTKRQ
Description for BRD4 (BET proteins): as §2

Regarding `C=C(F)C(=O)N1CCN(c2nc(OC[C@@H]3CCCN3CCCOCCC(=O)N[C@H](C(=O)N3C[C@H](O)C[C@H]3C(=O)NCc3ccc(-c4scnc4C)cc3)C(C)(C)C)nc3c2CCN(c2cccc4cccc(Cl)c24)C3)C[C@@H]1CC#N` [LC-2], in data set [1], the “sensitivity (colony formation)” value was “intrinsic resistance”. Besides, the “KRASG12C protein levels, single agent” value on KRASG12C (SW1463 cells, 1 μM) is reported as “had no impact on KRASG12C protein levels”.

With `Cc1ncsc1-c1ccc([C@H](C)NC(=O)[C@@H]2C[C@@H](O)CN2C(=O)[C@@H](NC(=O)CCCCCCCCCCNCCCONC(=O)c2ccc(F)c(F)c2Nc2ccc(I)cc2F)C(C)(C)C)cc1` [MS432], in the data set on MEK1/2 [2], the “MEK1 or MEK2 protein levels, ERK1/2 phosphorylation, apoptosis” value was “did not reduce MEKI or MEK2 protein levels, inhibit ERK1/2 phosphorylation or induce apoptosis”. Further, the “resistance of MDR1 overexpressing vs MDR1 low expressing CRC cell lines” value in data set [3] was “more resistant”. In addition, the “protein reduction on co-treatment with tariquidar” value in the data set with MEK1/2 [4] is reported as “improved the protein reduction relative to single agent therapies”.

For the compound `CC(C)(C)c1cnc(CSc2cnc(NC(=O)C3CCN(CC(=O)NCCOCCOCCOCCNc4cccc5c4C(=O)N(C4CCC(=O)NC4=O)C5=O)CC3)s2)o1` (centres unmarked) [Thal SNS 032], at CDK9 [5] (chronically exposed A1847 cells vs parental, increasing doses, 24 hours), the “CDK9 protein levels and phosphorylation of RNA polymerase (S2)” value is listed as “did not inhibit cell viability or reduce CDK9 protein levels”. The “reduction of intended degrader target (CDK9)” value at CDK9 [6] (DLD-1, single agent, escalating doses, vs A1847 or MOLT4) is given as “did not reduce the intended degrader target to the extent observed with degrader-sensitive A1847 or MOLT4 cells”. The “degradation efficiency of CDK9 on co-treatment with tariquidar” value on CDK9 [6] (DLD-1, increasing doses plus tariquidar 0.1 μM) is given as “improved the degradation efficiency”. Besides, the “acquired resistance (cell viability dose-response)” value in data set [7] (A1847 parental vs chronically exposed cells, escalating doses, 5 days) was “acquire resistance”. Moreover, the “cell viability of MDR1 overexpressing cells” value in [8] is recorded as “did not reduce cell viability to the extent of cancer cell lines expressing low or no detectable MDR1 protein”. Also, the “MDR1 protein levels upregulated relative to parental cell lines by LFQ analysis” value in the data set with MDR1 (ABCB1) is on record as around 2.5 fold. Further, the “cross-resistance to PROTACs targeting other proteins” value in [9] was “cross-resistant”.

As to `CS(=O)(=O)CCNCc1ccc(-c2ccc3ncnc(Nc4ccc(OCc5cccc(F)c5)c(Cl)c4)c3c2)o1` [lapatinib], the “degradation of CDK9 in degrader-resistant cell lines” value on CDK9 [5] (A1847 Thal-R vs parental, 2 μM, 4 hours) is “resulted in degradation of BET proteins (FIG. 5, Panel G; FIG. 12, Panels E and F) or CDK9”. The figures for the “MDR1 drug efflux activity (Rhodamine 123 efflux)” value on MDR1 [10], at MDR1 [11] and on MDR1 [14] were “reduced MDR1 drug efflux activity similar to tariquidar”, “reduced MDR1 drug efflux activity similar to tariquidar-treatment” and “reduced MDR1 drug efflux activity similar to that observed with tariquidar”, respectively. Also, the “MEK inhibitor-induced ERBB3 and downstream AKT and RAF signaling” value in [12] is listed as “could be blocked by lapatinib treatment”. For the same compound, the “reduction in concentrations of dBET6 required to degrade BRD4 when combined” value at BRD4 (BET proteins) (combined with the compound at 2 μM) came to 100 fold. The “dBET6-mediated degradation of BRD4 on combined treatment” value on BRD4 (BET proteins) (increasing doses of dBET6 plus the compound at 2 μM) was “improved dBET6-mediated degradation of BRD4”. At CDK9 [6] (DLD-1, increasing doses of Thal SNS 032 plus the compound at 2 μM), the “degradation of CDK9 by Thal SNS 032 on combined treatment” value is recorded as “improving degradation of CDK9”. For the same compound, the “apoptosis in degrader-resistant cell lines” value in [13] is on record as “resulted in apoptosis similar to tariquidar treatment”. Further, the “sensitivity of degrader-resistant cells vs parental cells (cell viability)” value in [7] (increasing concentrations, A1847 dBET6-R, Thal-R, MZ1-R and SUM159 MZ1-R) is reported as “more sensitive”. For the same compound, the “growth inhibition of colonies on combination with Thal SNS 032” value with DLD-1 cells (compound at 2 μM, 14 days) is recorded as “enhancing growth inhibition of colonies”. In addition, in the data set with DLD-1 cells (dBET6 0.1 μM plus the compound at 2 μM, 14-day period), the “colony formation on co-treatment with dBET6” value was “sensitized DLD-1 cells to dBET6”. The “degradation of BET proteins in degrader-resistant cell lines” value in data set [15] is reported as “resulted in degradation of BET proteins”. In addition, the “PROTAC-mediated degradation of KRASG12C on combining with LC-2” value on KRASG12C (setting [16]) was “improved PROTAC-mediated degradation of KRASG12C reducing protein levels”. The “phosphorylation of MEK and ERK on combining with LC-2” value on KRASG12C (setting [16]) is “reduced phosphorylation of MEK and ERK”. In addition, on KRASG12C (SW1463, lapatinib 5 μM, 48 hours), the “CRAF and AKT phosphorylation and apoptosis on combining with LC-2” value was “uniquely reduced CRAF and AKT phosphorylation, as well as induced apoptosis”. Moreover, the “tumor growth (tumor volume)” value in the data set on LS513 xenografts is listed as “ineffective”.
